Key:
IOMM xenograft = assay: IOMM meningioma subcutaneous xenograft model; type: in vivo, Nude mice; details: 35 mg/kg intraperitoneally daily, vs control
Experimental: For subcutaneous xenografts, NSG mice (6-8 weeks old) from the NCI-Frederick animal facility and Jackson Lab (Bar Harbor, ME USA) were injected with 5×10^6 to 1×10^7 cells subcutaneously in the flank. One week later, the tumor-bearing mice were randomly assigned to different groups and made the tumor volume baseline equivalent and treated with normal saline or Zenomycin (35 mg/kg) everyday intraperitoneally. Tumors were measured using a caliper, and volume was calculated.

[1] = test system: human non-small cell lung cancer cells A549; assay: MTT in-vitro anti-tumor activity test, A549; details: MTT
Experimental: Experimental Materials Human non-small cell lung cancer cells A549, mouse breast cancer cells 4T-1 and mouse melanoma B16-BL6 were purchased from American Type Current Collection (ATCC, Rockville, MD, USA). An RPMI-1640 culture solution containing 10% of fetal calf serum and 2% of glutamine was inoculated with the A549, 4T-1 and B16-BL6 cells, and the cells were incubated at 37° C. in a 5% CO2 incubator.
The compounds were dissolved in DMSO under a sterile condition, and the obtained solutions were diluted to required concentrations by using an RPMI 1640 culture solution, wherein the final concentration of the DMSO was less than 0.5%.
MTT reduction method is used.
A549, 4T-1 and B16-BL6 were used as adherent cells, adherent tumor cells in a logarithmic phase were selected, digested with pancreatin, and then prepared into a cell suspension of 5×10^4/ml with a culture medium containing 10% of calf serum, a 96-well culture plate was inoculated with the cell suspension, wherein each well contained 100 μl of the cell suspension, and incubation was carried out for 24 h at 37° C. and 5% CO2. Replacing was carried out with a new culture solution containing the samples to be detected of different concentrations in the experimental groups, replacing was carried out with a culture solution containing a same volume of solvent in the control group, three parallel wells were set in each group, and incubation was carried out for 48 hours at 37° C. and 5% CO2. The supernate was discarded, careful washing was carried out with PBS twice, 100 μl of a freshly prepared culture medium containing 0.5 mg/ml of MTT was added into each well, and incubation was continued to be carried out at 37° C. for 4 h. The supernatant was carefully discarded, 150 μl of DMSO was added, uniform mixing was carried out for 10 min by using a micro oscillator, and the optical density value was measured at 492 nm by using a microplate reader.
Tumor cell growth inhibition ratio (%)=[A492 (negative control)−A492 (dosing group)]/A492 (negative control)×100%
The median inhibitory concentration (IC50) of the sample is calculated.

SelH [2] = target: SelH (Homo sapiens, UniProt Q8IZQ5, U44C); assay: Surface plasmon resonance (SPR) detection of affinity between compounds and SelH; type: binding
Description: A Cys-deficient Escherichia coli expression system was adopted, which is an effective method to prepare selenoprotein found in recent years. Itsbasic principle is as follows: the characteristic that Cys transfer RNA (tRNACys) can bind to Sec was utilized, and a culture medium which is lack of cysteine (Cys) and rich in Selenium cysteine (Sec) was used for culturing a strain, so that Sec was successfully incorporated into newly expressed protein. According to existing literature reports, a human SelH gene sequence was obtained. Selenocysteine of the SelH is in the middle of the sequence and was terminated here during prokaryotic expression, so that the selenocysteine was mutated from a triple codon TGA of the selenocysteine into TGC, which was synthesized by the Sangon Bioengineering (Shanghai) Co., Ltd. In addition, the adopted SPP system was a single protein production system, and a principle of the SPP system was to induce MazF enzyme (mRNA interfering enzyme for cutting RNA on an ACA nucleotide sequence) to cause growth arrest of thalli. The enzyme can specifically recognize and cut the ACA sequence and prevent synthesis of other background proteins in bacteria. Therefore, when mRNA of the desired target protein was encoded, if the mRNA can be designed into a form lacking an ACA base triplet according to an amino acid encoding rule and was induced at 15° C. by using a pCold vector in cells expressing MazF, the mRNA was not enzymatically hydrolyzed, only a protein derived from the mRNA was generated, and there was little synthesis of other cell proteins.
A pColdI-selH plasmid was transformed into BL21 (DE3) Cys-deficient Escherichia coli, so as to obtain a defective expression bacterium pColdI-selH. Sec was added during culture, making it become selenium-containing protein. The target protein was purified by using Ni^2+ column chelating chromatography, and impure protein was eluted by using an imidazole eluent of different concentrations to finally obtain the target protein. Soluble SelH protein was finally obtained, and SDS-PAGE (sodium dodecyl sulfate polyacrylamide gel electrophoresis) analysis was carried out.
A surface plasmon resonance (SPR) method was adopted to detect the interaction condition of a small molecule and a protein, so that the screening of drugs targeting SelH was carried out.
Purified SelH was diluted into a 50 μg/mL protein solution by using 10 mM sodium acetate with a pH value of 5.5, the purified SelH was fixed onto a CM5 chip by an amino coupling method by using Biacore 8K (GE Healthcard, Sweden), and an RU value was recorded.
An isopentenyl or isovaleryl substituted coumarin compound, or a triterpenoid compound with an isopentenyl-like structure (the compound specifically includes aurapten, protopanaxadiol, iso-imperatorin, decursin, osthol, notoginsenoside R1 and shionon) was dissolved in 100% DMSO to be prepared into solutions containing 5% DMSO of different concentrations (0, 31.25, 62.5, 125, 250 and 500 μM) by using a 1.05×PBS-P^+ buffer solution (GE Healthcare, obtained by diluting 10×PBS-P^+).
A single-cycle kinetics method was adopted, the 1.05×PBS-P^+ buffer solution containing 5% DMSO was used as a Running Buffer, different compounds of different concentrations flowed through the SelH fixed onto the chip, wherein the binding time was 120 s, and the change condition of the RU value was recorded. An equilibrium dissociation constant (KD) was calculated by using software in Biacore 8K so as to evaluate the binding affinity between the protein and the compounds. The SPR detection result of the affinity between compounds and SelH in Embodiment 2 of the present disclosure is as shown in FIG. 1A-G, and the result statistics is as shown in Table 1.
(1) Screening of small molecule drugs by taking SelH as a target A surface plasmon resonance (SPR) method was adopted to detect the interaction condition of a small molecule and a protein, so that the screening of drugs targeting SelH was carried out. […]

786-O and RCC4 cells = assay: Annexin V apoptosis analysis, RCC cells; type: cell-based
Experimental: Cell viability was assessed similarly via CKK8 analysis. […] (FIG. 10C, D).
Cell apoptosis and cell cycle: Cells (2×10^5) were plated in 6-well plates and treated with different concentrations of ISP I. Then the cells were harvested and washed three times with PBS. Cells were resuspended in 100 μl binding buffer and were incubated with 5 μl APC-conjugated Annexin V working solution, a product of BD bioscience (Franklin Lakes, NJ USA), and 1 μl propidium iodide (PI), a product of Invitrogen, for 15 min at room temperature with protection from light. Data acquisition and quantification were processed with BD LSRFortessa flow cytometer, using FlowJo software (Ashland, OR USA).

SELH [3] = target: SELH (Homo sapiens (Human), UniProt Q8IZQ5); assay: Drug affinity responsive target stability (DARTS) assay in LN229 cells; type: binding; details: LN229 lysate, ISP I 40 μg/mL, mass spectroscopy
Experimental: (2) To identify ISP I's molecular target, the inventors performed drug affinity responsive target stability (DARTS) assay in LN229 cells.
The inventors discovered that the binding of ISP I to its target proteins temporarily locks them into a stable conformational structure, which prevents their recognition by proteases. After evading protease degradation, the identity of ISP I's target proteins was determined using mass spectroscopy.
DARTS assay data were taken to identify the target of ISP I in vitro. For this assay, the invenots used the protocol published by Lomenick et al., Proc. Nat'l Acad. Sci. USA 106: 21984 (2009). Briefly, LN229 cells were lysed with M-PER (Pierce) supplemented with protease and phosphatase inhibitors. After centrifugation at 14,000 rpm for 15 min, lysates were diluted to the same final volume and protein concentration with M-PER and were dissolved in TNC buffer [50 mM Tris-HCl (pH 8.0), 50 mM NaCl, 10 mM CaCl2]. All steps were performed on ice or at 4° C. to help prevent premature protein degradation. […] Peptides were analyzed by LC/MS/MS on a Thermo LTQ-Orbitrap mass spectrometer with an Eksigent LC pump. For quantitative comparison of protein and peptide abundances, MS spectra were analyzed by means of the differential workflow of Rosetta Elucidator (Rosetta Inpharmatics).

Sequence of SelH (Q8IZQ5 with tags, fused parts or gaps U44C): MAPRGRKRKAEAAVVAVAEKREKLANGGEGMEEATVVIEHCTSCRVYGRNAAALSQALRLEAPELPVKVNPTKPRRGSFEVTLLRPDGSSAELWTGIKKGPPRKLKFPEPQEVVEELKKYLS
Sequence of SELH (Q8IZQ5 whole entry): as the sequence (Q8IZQ5 with tags, fused parts or gaps U44C) above, with C44U counted along it

Compound: CO[C@@H]1[C@@H](O[C@@H]2O[C@H](C)[C@@H](O[C@H]3C[C@@](C)(O)[C@@H](OC(=O)CC(C)C)[C@H](C)O3)[C@H](N(C)C)[C@H]2O)[C@@H](CC=O)C[C@@H](C)[C@@H](O[C@H]2CC[C@H](N(C)C)[C@@H](C)O2)/C=C/C=C/C[C@@H](C)OC(=O)C[C@H]1O [Isovalerylspiramycin I, 4″-isovalerylspiramycin I]
- tumor size and weight, IOMM xenograft (IOMM xenograft): significantly reduced tumor size and weight
- inhibition effect on A549 cells (in words) [1]: significantly inhibited the human lung cancer A549 cells
- Kd (SelH [2]; SPR Biacore 8K, single-cycle kinetics, Table 3, read-out: KD binding of macrolides and cyclic peptides to SelH): 2480 nM
- binding activity to the SelH (in words) (SelH [2]; ranking within the table's compounds): strongest
- apoptosis (Annexin V) (786-O and RCC4 cells): dose-dependent apoptosis
- target protein identified by DARTS (SELH [3]): SELH was the most abundant primary protein
